Assay results from patent US7691416B2, “Methods of treating vascular disease” (priority 2002, dated 2010).

Tested on: graft infiltration by activated leukocytes
Assay: Immunostaining and cell population analysis of the adventitia of aortic grafts
Type: in vivo, rat
Conditions: 56 days after transplantation
Description: Animals. Male (250-350 g) Brown Norway rats (RT1^n) were used as aortic graft donors and male (250-350 g) Lewis rats (RT11) as recipients. Dawley (400-450 g) rats were used in the balloon injury model. Adult male C57BL/6, C57/S129, p21^−/− and p53^−/− null mice were purchased from Jackson Laboratory (Bar Harbor, Me.). mkk3^(−/−) null mice were generated as described Lu et al. (EMBO. 18:1845-1857 (1999)). The inos^−/− and enos^−/− mice were bred at the University of Pittsburgh. Aortic transplant model. Aortic transplantation was performed as described in Shimizu et al. (Nat. Med. 7:738-741 (2001)). Briefly, 3 to 4 cm of descending aorta was harvested from the donor and implanted between the renal arteries and the aortic bifurcation of the recipient. Both edges of the native abdominal aorta were ligated. Balloon injury model. Balloon angioplasty was carried out as described in Murakami et al. (Atherosclerosis 157:361-368 (2001)). Briefly, a 2 Fr. arterial embolectomy catheter (Baxter, Chicago, Ill.) was inserted into the common carotid artery, and injury was created by inflating the balloon to 5 atmospheres of pressure for 5 minutes. The arteries were flushed and the external carotid artery was ligated, ensuring return of blood flow through the common and internal carotid arteries. Injury of the vessel wall and subsequent pathological analysis was made in a manner that was blinded to the treatment group. CO exposure. CO was delivered to animals as described in Otterbein et al. (Nat. Med. 6:422-428 (2000)). […] In the balloon injury model, rats received either no pretreatment or were exposed to CO (250 ppm) for one hour prior to injury. Following surgery rats were housed in room air for two weeks. Cells. Primary mouse and rat smooth muscle cells (SMC) were isolated and cultured as described in Laubach et al. (Proc Natl Acad Sci USA 92:10688-9 (1995)). Mouse SMC isolated from HO-1^−/− mice were obtained as described in Duckers et al. (Nat. Med. 7:693-698 (2001)). Cell treatment and reagents. Guanylate cyclase inhibitor 1H(1,2,4) oxadiazolo(4,3-a)quinoxalin-1 (ODQ; Calbiochem-Novabiochem, San Diego, Calif.; 10-100 μM) and p38 MAPK inhibitor pyridinyl imidazol SB203580 (Calbiochem; 5-20 μM) were dissolved in DMSO. The cGMP analogue 8-bromo-cGMP sodium salt (8-Br-cGMP; Sigma-Aldrich, St. Louis, Mo.; 10-100 μM) and the PKG inhibitor (10-100 μM; Alexis Biochemicals) were dissolved in water. […] [^3H]thymidine incorporation was measured by scintillation spectroscopy and presented as mean counts/min/well. […] Areas from eight to ten captured images were calculated using digital imaging software as number of pixels corresponding to those areas. Twenty-four to forty-eight sections from each group were statistically analyzed with SPSS software version 10. […]

[1] = adventitia of allogeneic aortic grafts

SMILES: [C-]#[O+] [CO, carbon monoxide]
- Accumulation of CD45+/CD3+ T cells, inhibition versus air treated controls [1]: 57±22%
- Accumulation of CD45+/CD68+ monocyte/macrophages, inhibition versus air treated controls [1]: 65±24%
- Expression of MHC II antigens and CD54/ICAM-1 (Mø activation) [1]: inhibited
- Graft infiltration by activated leukocytes (CD45+), inhibition versus air treated controls (maximal effect, 700 to 1000 ppm of CO): 52±20%
